[mp] = methylphosphonate linkage
What was measured:
[1] = system: complementary synthetic RNA target; assay: Hybridization of chirally enriched and non-chiral oligomers to RNA targets (Example 32); format: binding; conditions: 1:1 with RNA, midpoint of sigmoidal transition at 260 nm
Description: Chirally enriched all-pyrimidine (C*T)7 A and all-purine (A*G)7 T MP-oligomers were prepared using either Rp - or Sp -dimeric units. Control oligomers were also prepared using the individual monomeric units. The asterisks indicate the positions of defined chirality.
Each oligomer was annealed to a complementary synthetic RNA target and then monitored by absorbance at 260 nm as a function of temperature. Sigmoidal transitions were observed corresponding to thermal denaturation of the hybridization complexes. The Tm values were determined at the midpoint of each sigmoidal transition. […] Thus, we anticipated that the data for each chirally enriched series would be applicable to double-stranded and triple-stranded MP/RNA helices, respectively.

[2] = system: complementary RNA targets; assay: Tm of Rp-enriched versus racemic methylphosphonate oligomers with RNA (Example 33); format: binding; conditions: 2.4 μM total strand concentration, pH 7.2, 100 mM sodium chloride
[3] = system: complementary synthetic RNA targets; assay: Binding stability of backbone modified (CT)7A oligomers to RNA (Example 34)

## 2288-1: 5'-CT-CT-CT-CT-CT-CT-CT-A-3', racemic all-MP (CTCTCTCTCTCTCTA; all [mp], sugars by position and methylation of C not given here) [Oligomer 2288-1]
[1]
  Tm (1:1, RNA): 35.1 °C
[2]
  Tm: 34.4 °C
[3]; 2.4 μM total strand concentration, pH 7.2, 100 mM sodium chloride
  TM: 34.0 °C
[3]; 37° C., two-state model fit of thermal dissociation data
  K (37° C.) (binding constant KA): 8.3 × 10^5

From patent US6262036A, “Method for inhibiting RNA translation using chimeric oligonucleoside compounds” (priority 2000, dated 2001)
